In the assay the target is T1, RXRα (Homo sapiens, UniProt P19793).
T1 construct: gene RXRA; RXRα-LBD (N-terminal His-tagged)
T1 sequence (P19793 223-462 limits assumed): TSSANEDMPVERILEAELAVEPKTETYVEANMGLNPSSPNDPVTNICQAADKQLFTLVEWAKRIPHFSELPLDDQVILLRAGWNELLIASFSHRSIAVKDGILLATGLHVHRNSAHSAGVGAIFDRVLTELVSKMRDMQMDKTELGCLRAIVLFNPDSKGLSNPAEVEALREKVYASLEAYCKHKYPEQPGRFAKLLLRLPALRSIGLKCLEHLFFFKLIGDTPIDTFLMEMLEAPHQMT
Description: fluorescence quenching with purified RXRα-LBD. It counts as binding.

As a reminder, the Kd is a measure of binding affinity in units of concentration. `CC(=O)O[C@H]1C[C@H]2[C@H]3[C@H]([C@@H](O)C[C@]2(C)[C@H]1[C@H](C)C=C[C@H](C)C(C)C)[C@@]1(C)CC[C@H](O)CC1=C[C@@H]3O` [compound 2, 16β-acetoxy-3β,7β,11β-trihydroxyergost-5,22-diene] had a Kd of 13.8 µM.

As to `CC(=O)O[C@H]1C[C@H]2[C@@H]3[C@@H](O)[C@@H](O)[C@H]4C[C@@H](O)CC[C@]4(C)[C@H]3[C@@H](O)C[C@]2(C)[C@H]1[C@H](C)/C=C/[C@H](C)C(C)C` [compound 6, penicisteroid A], the Kd came out at 12.9 µM.

The values above are taken from article PMC6472029, “Steroids from the Deep-Sea-Derived Fungus Penicillium granulatum MCCC 3A00475 Induced Apoptosis via Retinoid X Receptor (RXR)-α Pathway” (Marine Drugs, 2019).
